We go through three compounds from patent US20260356860A1, “2-SUBSTITUTED 3,4A,5,7,8,8A-HEXAHYDRO-4H-THIOPYRANO[4,3-DJPYRIMIDIN-4-ONES FOR WOUND TREATMENT” (priority 2022, published 2026).

One test relates to elastic cartilage. Kind of test: Elastic cartilage regeneration in rabbit ear punch wounds (stained cross sections, day 45). In kind it is in vivo. As to conditions: for average distance between opposing cartilage endplates: original 8 mm wound margin, saline 6 mm; for average cartilage growth upon closure of the wound: saline 2 mm; for average cartilage tissue regrowth: saline about 25%; for cartilage regeneration by histology: versus control. As for the experimental part: Compounds of Formula (I) were tested and compared to saline control in elastic cartilage regeneration tests. Rabbit ears were punched through and through with an 8 mm punch. 4 holes were punched in each ear of the specimen (four positions L1, L2, L3, and L4 in the left ear and four positions R5, R6, R7, and R8 in right ear). Saline was applied via a spray on the control specimen, Compound 8 was applied via a phospholipid spray on another specimen, and Compound 18 was applied via a phospholipid spray on yet another specimen. The phospholipid spray contained compound (45 mg), butylene glycol (2 mL), polysorbate 20 (2 mL), phosphotidyl choline (0.5 g), ethanol (2 mL), and ultra pure water (40 mL).
At day 45, the tests were stopped and the tissue was processed. An embed cut was made across the center point of the healed wounds in each site (FIG. 7, top). A slide was used to obtain sectioned tissue sample for staining and imaging (FIG. 7, bottom).
After staining with either Safronin O or Trichrome Blue, the distance between the opposing cartilage endplates was measured. From the original 8 mm wound margin distance, the saline control averaged 6 mm of distance between opposing cartilage endplates (FIG. 8), or 2 mm of average cartilage growth upon closure of the wound (about 25% average cartilage tissue regrowth). Compounds of Formula (I) (Compound 8 and Compound 18) provided about 2-3 mm average distance between opposing cartilage endplates (FIG. 8), or […] of average cartilage growth upon closure of the wound (about 68-75% average cartilage tissue regrowth).
FIGS. 9-11 display the original 8 mm wound margin (top, two vertical gray lines) and in an inset (bottom left, curved gray line). FIGS. 9-11 show expanded views of the cartilage regeneration site where chondrocytes are newly formed within the wound margin. Comparing FIG. 10 (Compound 8) and FIG. 11 (Compound 18) to FIG. 9 (control), cartilage regeneration using compounds of Formula (I) was confirmed.

The subject of a further test is closed excisional wounds. The test can be described thus: Collagen organization (plane polarized light) of closed excisional wounds. It counts as in vivo, Yucatan Miniature Swine. As to the method:
(§1) Additional tests were performed including elasticity (Table 12); max force (Table 13); tensile strength (strain) (Table 14); energy peak (Table 15); rete-ridge formation; and collagen organization (plane polarized light) (FIG. 24) of the healed wound sites, described as follows.
Regarding collagen organization, the number of wounds indicating collagen infiltration into the scar were identified by polarized imaging (plane polarized light).

Another test deals with healed wound sites. Kind of test: Physical properties of healed wounds, summary. It counts as in vivo, porcine. As to conditions: compared to the control. As to the method:
as §1
Wounds treated with 0.9% saline provided the least wound healing integrity for elasticity, max force, strain, and energy peak parameters.

The subject of test [1] is C. acnes (derived from ATCC ® 11827 ™). Kind of test: Bacteriostasis, log reduction. It counts as cell-based.

As to `CC(C)(OCCO)c1ccc(-c2nc3c(c(=O)[nH]2)CSCC3)cc1` [Compound 8, 2-(4-(2-(2-hydroxyethoxy)propan-2-yl)phenyl)-3,5,7,8-tetrahydro-4H-thiopyrano[4,3-d]pyrimidin-4-one], in the test on elastic cartilage, the “average distance between opposing cartilage endplates” value is given as 2-3 mm; the “average cartilage growth upon closure of the wound” value is 5.5-6 mm; the “average cartilage tissue regrowth” value is listed as 68-75%; the “cartilage regeneration by histology” value was “newly formed chondrocytes are more numerous and larger than in the control”.
On to `O=c1[nH]c(-c2ccc(-c3ccc(B(O)O)cc3)cc2)nc2c1CSCC2` [Compound 10, (4′-(4-oxo-3,5,7,8-tetrahydro-4H-thiopyrano[4,3-d]pyrimidin-2-yl)-[1,1′-biphenyl]-4-yl)boronic acid], for which, in the test with closed excisional wounds, the “number of wounds indicating collagen infiltration into the scar” value was 7 wounds. Moreover, the “wound healing integrity (physical properties of the healed wound site)” value in the test with healed wound sites is given as “greatest wound healing integrity”.
Take `COC(=O)NCCOC(C)(C)c1ccc(-c2nc3c(c(=O)[nH]2)CSCC3)cc1` [Compound 18, methyl (2-((2-(4-(4-oxo-3,5,7,8-tetrahydro-4H-thiopyrano[4,3-d]pyrimidin-2-yl)phenyl)propan-2-yl)oxy)ethyl)carbamate]: in the test on elastic cartilage, the “average distance between opposing cartilage endplates” value is on record as 2-3 mm; the “average cartilage growth upon closure of the wound” value was 5.5-6 mm; the “average cartilage tissue regrowth” value is 68-75%; the “cartilage regeneration by histology” value was “newly formed chondrocytes are more numerous and larger than in the control”. Further, in test [1] (24 h), the Average result is 10.7 × 10^4, the “Log Reduction” value was determined as 0.7 and the “Log Value” was found to be 4.2. Further, in test [1] (72 h), the Average result is recorded as 6.5 × 10^3, the “Log Reduction” value is reported as 1.1 and the “Log Value” is given as 3.8.
